{
  "source": "paper PMC3386246",
  "about": "(PLoS Pathogens, 2012)",
  "biological_target": "T1, NtrC D54E (Escherichia coli, UniProt P0AFB8, D54E)",
  "T1 construct": "gene glnG",
  "T1 sequence (P0AFB8 whole entry D54E)": "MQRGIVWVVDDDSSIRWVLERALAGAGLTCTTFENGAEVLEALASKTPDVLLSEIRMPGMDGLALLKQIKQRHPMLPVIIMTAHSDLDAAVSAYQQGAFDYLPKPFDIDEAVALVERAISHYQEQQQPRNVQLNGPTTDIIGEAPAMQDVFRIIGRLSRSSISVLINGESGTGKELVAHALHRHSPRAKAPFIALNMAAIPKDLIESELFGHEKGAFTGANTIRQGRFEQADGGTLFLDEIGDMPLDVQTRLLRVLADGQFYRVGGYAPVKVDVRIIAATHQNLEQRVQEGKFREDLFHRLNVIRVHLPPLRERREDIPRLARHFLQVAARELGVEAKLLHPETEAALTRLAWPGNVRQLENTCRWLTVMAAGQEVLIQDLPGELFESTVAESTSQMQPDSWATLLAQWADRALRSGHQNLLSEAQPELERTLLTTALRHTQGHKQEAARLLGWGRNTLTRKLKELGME",
  "assay": "biochemical",
  "details": "read-out: % inhibition at 250 μM",
  "data": [
    {"smiles": "CC(C)COC(=O)CSc1n[nH]c(=O)[nH]c1=O", "note": "[compound 11]", "values": [
      {"measurement": "inhibition at 250 µM", "value": "~10", "unit": "%"}
    ]},
    {"smiles": "CC(C)(C)COC(=O)CSc1n[nH]c(=O)[nH]c1=O", "note": "[compound 12]", "values": [
      {"measurement": "inhibition at 250 µM", "value": "~10", "unit": "%"}
    ]}
  ]
}
